# Test results as given in patent publication US11440909B2, “10H-phenothiazine ferroptosis inhibitor as well as the preparative method and the use thereof” (CHENGDU HENGHAO INVESTMENT CO. LIMITED, priority 2018, dated 2022).
# pEC50: −log10 of the molar value. Like-named read-outs stand apart in the source and are kept apart here.
# Experiments:
# [1] = tested on: rat middle cerebral artery occlusion (MCAO) stroke model; experiment: Rat middle cerebral artery occlusion (MCAO) stroke model, different doses; type: in vivo; settings: for Infarct weight: tail vein injection, 24 h of reperfusion, TTC stain; for Inhibition rate of cerebral infarction: versus model group infarct range
# Protocol: By rat middle cerebral artery occlusion (MCAO) stroke model (also called cerebral ischemia model), the therapeutic effect of the compound of the present invention on ischemic stroke in SD rats at different doses was studied. Male SD rats were selected and induced anesthesia by 2-3.0% isoflurane. The middle cerebral artery was blocked by the thread plug method, resulting in rat ischemia model; the ischemic rats were placed at room temperature and kept their body temperature being 37° C. 60 minutes after ischemia onset, the rats were scored by Bederson neurobehavioral scale to determine whether the model was successfully made. 90 min after ischemia onset, the thread plug was pulled out for reperfusion. […] After 24 h of reperfusion, the animals were scored by NSS scale to evaluate neurological deficit. And then the animals were dissected, brains were collected and subjected to TTC stain. […] The percentage of the weight of the infarct tissue based on the weight of the whole brain was regarded as the infarct range (%), and the inhibition rate (%) of each drug treatment group was calculated based on the infarct range.
# [2] = tested on: fibrosarcoma cell line HT1080; experiment: Ferroptosis screening model (MTT method), Erastin-induced ferroptosis; type: cell-based, human; settings: Homo sapiens
# How it was run: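 HT1080 cells adhered 24 h, then received compound plus Erastin ([…] final) for 72 h at 37 °C, 5% CO2, in triplicate. Viability by MTT with SDS solubilisation, absorbance at 570 nm; inhibition of ferroptosis fitted to give EC50.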
smiles,measurement,setting,value
"CC(c1ccc(N2CCN(C)CC2)cc1)c1ccc2c(c1)Nc1ccccc1S2 (stereo not shown) [Compound A38, 2-(1-(4-(4-methylpiperazin-1-yl)phenyl)ethyl)-10H-phenothiazine]",Infarct weight,[1]; high dose 2.5 mg/kg,0.126 ± 0.072 g
same,Inhibition rate of cerebral infarction,[1]; high dose 2.5 mg/kg,50.885%
same,Infarct weight,[1]; low dose 0.5 mg/kg,0.170 ± 0.041 g
same,Inhibition rate of cerebral infarction,[1]; low dose 0.5 mg/kg,31.209%
same,Infarct weight,[1]; medium dose 1.25 mg/kg,0.152 ± 0.064 g
same,Inhibition rate of cerebral infarction,[1]; medium dose 1.25 mg/kg,38.968%
same,Infarct weight,[1]; very low dose 0.2 mg/kg,0.187 ± 0.078 g
same,Inhibition rate of cerebral infarction,[1]; very low dose 0.2 mg/kg,27.307%
same,pEC50,"[2]; HT-1080, 72 h, HT1080, ferroptosis inducer Erastin, 72 h, average of three tests, read-out: EC50",9.30
same,pEC50,"[2]; HT-1080, HT1080, Erastin, read-out: EC50 value",~9.00
